From patent publication US6610516B1, “Cell culture process” (Genentech, Inc., priority 1999, dated 2003)

Columns and labels:
CHO cells = assay: Cell-cycle analysis (propidium iodide flow cytometry) of rht-PA-producing CHO cell cultures; format: cell-based, Chinese Hamster; details: T-flasks, 37° C., thymidine 250 μg/mL; for Cells in G0/G1 phase: 3-4 days, added at inoculation: quinidine 90 μM, control 53.91%; for Cells in S phase: control 34.37%
Source text: As used herein, a “cell-cycle inhibitor that blocks cells in the G0/G1 phase of growth” is a molecule that causes cells to accumulate in the G0/G1 phase of growth. This can be determined by cell cycle analysis, i.e., uniform suspensions of nuclei are stained with propidium iodide (PI) using the detergent-trypsin method of Vindelov et al., Cytometry, 3: 323-327 (1983) to determine relative cellular DNA content by flow cytometric analysis. Events are gated using doublet discrimination to exclude doublets, and the data are modeled using ModFit LT Cell Cycle Analysis™ software (Verity Software House).
(§1) The quantity of cells needed for a 0.2% packed cell volume seed density was centrifuged at approximately 700×g for 10 minutes, and resuspended in 25 cm^2 T-flasks in the appropriate fresh medium for each test case. The T-flasks were set up in triplicate with 5 mL in each flask and incubated for 3 to 4 days at 37° C. and 95% air 5% CO2. Sodium butyrate was added to a concentration of 0.375 mM, 0.75 mM, or 1.5 mM at the time of inoculation for the 25 cm^2 T-flasks. Cells were also cultured in spinner flasks at volumes of 100 ml with similar butyrate concentrations to the T-flask cases. For fermentor experiments, butyrate was added on the second day of the experiments. T-flask cultures were also carried out at 33° C. and 37° C. with no butyrate additions. […] T-PA site-occupancy was analyzed using the method of Example 1.
(§2) Cells were cultured as for the sodium butyrate experiment described in Example 2. Thymidine was dissolved in water and sterile filtered for a 33-36× stock solution. […] T-PA site-occupancy was analyzed using the method of Example 1.

[1] = tested on: t-PA site occupancy at Asn-184; assay: Type I/Type II t-PA assay (RP-HPLC) of supernatant from rht-PA-producing CHO cell cultures; format: cell-based, Chinese Hamster; details: for t-PA site occupancy compared to control with no cell-cycle inhibitor: 3-4 days, quinidine 90 μM, thymidine 250 μg/mL at inoculation (FIG. 9); for t-PA site-occupancy, effect of nucleotide sugar precursors: increased availability; for t-PA site-occupancy, effect of nucleotide sugar precursors / Decrease of t-PA site occupancy at 500 µM: days 4-6 (FIG. 12); for Decrease of t-PA site occupancy at 500 µM: Cricetulus griseus, CHO, 0.5 mM each; for t-PA site-occupancy, effect of further butyrate increase: 1.5 mM butyrate; for Increase of t-PA site-occupancy: 1, 10 or 100 nM hormone, day 7 (FIG. 13)
Procedure: Type I/Type II t-PA assay:
1. Thaw cell culture supernatant sample (If whole broth, spin out cells in centrifuge.)
2. Add 2 μl freshly thawed plasminogen to 400 μl of sample.
3. Incubate at 37° C. for 60 minutes.
4. Add 20 μl freshly-thawed 1 M DTT and 400 μl 8 M guanidine-HCl/50 mM TRIS/3.2 mM EDTA solution.
5. Incubate at 37° C. for 15 minutes.
6. Transfer to vial and load 250 μl for assay on HP 1090™ HPLC using the following conditions:
ZORBAX™ C8 column at 40° C.;
Monitoring of eluents by fluorescence (excitation at 275 nm, emission at 340 nm);
Running each sample with the following 70-minute method where eluent A is 0.1% trifluoroacetic acid (TFA) in water and eluent B is 0.1% TFA in acetonitrile:
5 to 35 min.—a linear gradient from 75% A to 60% A
45 min. to 70 min.—75% A to re-equilibrate the column
Type I/Type II fragments elute after approximately 25 minutes, and peak areas are integrated to determine relative quantities.
Recombinant ht-PA-producing CHO cells were carried in spinner flasks passaged every 3 or 4 days (at a density of 0.1% packed cell volume (PCV)) in selective medium (PS-20 basal medium supplemented with […] methotrexate, 10 mg/L recombinant human insulin (rh-insulin), 0.1 ml/L trace elements, and 0.05 ml/L lipid-ethanol). Sufficient culture was removed to seed 15 ml of medium at 0.2% PCV, and placed in a 50 ml sterile Falcon tube. The culture was centrifuged for 10 minutes at 700-1000 rpm and the supernatant was poured off. Upon addition of 15 ml of fresh selective medium, the culture was agitated gently to resuspend cells. Five ml of culture was placed in three T-25 flasks (25 cm^2 T-flasks). The caps were left loosened to allow equilibration with incubator atmosphere and the flasks were placed in a 33° C. or 31° C. incubator with 5% carbon dioxide. After 5 to 8 days of incubation, the cells were counted using a hemacytometer and/or by checking packed cell volume, and viability was checked using trypan blue. The culture was removed from the flasks, centrifuged for 10 minutes at 2000-2200 rpm, and the supernatant was assayed for rht-PA glycosylation. Alternatively to the T-25 flasks, the cells were cultured using 60-mm cell culture plates in triplicates.
The mini-fermentor experiments were performed under standard t-PA production conditions in fed-batch mode as noted herein in 5-liter stirred tank bioreactors (Applikon, Foster City, Calif.). The temperature was shifted to 33° C. or 31° C. on day 2 of the production phase.
as §1, §2
All experiments were done in 60-mm culture dishes using the procedure described in Example 1 except that a Mn salt, Fe salt, nucleotide sugar precursor, or hormone was added to the growth medium during the growth phase, with Mn or Fe salt or nucleotide sugar precursor added on day 1.

fibrin = details: in vitro; cited from earlier work

Compound: C=C[C@H]1C[N@@]2CC[C@H]1C[C@@H]2[C@@H](O)c1ccnc2ccc(OC)cc12 [Quinidine, quinidine]
- Cells in G0/G1 phase (CHO cells): 67.34% at 84.65
- Cells in G0/G1 phase (CHO cells; listed as quinidine): 67%
- Cells in S phase (CHO cells; quinidine 90 μM): 24.11%
- t-PA site occupancy compared to control with no cell-cycle inhibitor ([1]; T-flasks, 37° C.): increased site occupancy

Compound: Cc1cn([C@H]2C[C@H](O)[C@@H](CO)O2)c(=O)[nH]c1=O [Thymidine, thymidine]
- Cells in G0/G1 phase (CHO cells): 32.58% at 84.60
- Cells in G0/G1 phase (CHO cells; listed as thymidine): 33%
- Cells in G2-M phase (CHO cells; quinidine 90 μM, control 11.72%): 10.09% at 165.36
- Cells in S phase (CHO cells; quinidine 90 μM): 57.33%
- t-PA site occupancy compared to control with no cell-cycle inhibitor ([1]; T-flasks, 37° C.): decreased site occupancy
- t-PA site-occupancy, effect of nucleotide sugar precursors ([1]; 60-mm dishes, 37° C.): did not improve site-occupancy

Compound: NCC(=O)O [glycine]
- t-PA site-occupancy, effect of nucleotide sugar precursors ([1]; 60-mm dishes, 37° C.): did not improve site-occupancy

Compound: Nc1nc2c(ncn2[C@@H]2O[C@H](CO)[C@@H](O)[C@H]2O)c(=O)[nH]1 [guanosine]
- Decrease of t-PA site occupancy at 500 µM ([1]; 60-mm dishes, 37° C.): ~2%

Compound: O=c1[nH]cnc2nc[nH]c12 [hypoxanthine]
- t-PA site-occupancy, effect of nucleotide sugar precursors ([1]; 60-mm dishes, 37° C.): did not improve site-occupancy

Compound: [Cl][Mn][Cl] [manganese, MnCl2]
- Increase of t-PA Type I content (site-occupancy) over 3 nM control ([1]; MnCl2 10 nM-100 μM, 60-mm dishes, 37° C., days 4-6 (FIG. 10)): about 2.5%

Compound: CCCC(=O)[O-].[Na+] [sodium butyrate]
- Increase of Type I content compared to no butyrate ([1]; 0.75 mM butyrate, 60-mm culture plates (FIG. 6)): about 1%
- t-PA site-occupancy, effect of further butyrate increase ([1]; 31° C., 60-mm culture plates (FIG. 6)): increased it
- t-PA site-occupancy, effect of further butyrate increase ([1]; 37° C. and 33° C., 60-mm culture plates (FIG. 6)): lowered site-occupancy
- t-PA site-occupancy, effect of butyrate ([1]; 0.375 to 1.5 mM at inoculation, T-flasks, 37° C. (FIG. 5)): increased t-PA site-occupancy
- Type I content, effect of increasing butyrate from 0.75 to 1.5 mM ([1]; 5-liter bioreactors, days 5-7, 37° C. and 33° C. (FIG. 7)): decreased the Type I content

Compound: N[C@@H](Cc1cc(I)c(Oc2cc(I)c(O)c(I)c2)c(I)c1)C(=O)O [thyroxine]
- Increase of t-PA site-occupancy ([1]; 60-mm dishes, 37° C.): about 2%

Compound: N[C@@H](Cc1cc(I)c(Oc2ccc(O)c(I)c2)c(I)c1)C(=O)O [tri-iodothyronine]
- Increase of t-PA site-occupancy ([1]; 60-mm dishes, 37° C.): about 2%

Compound: O=c1ccn([C@@H]2O[C@H](CO)[C@@H](O)[C@H]2O)c(=O)[nH]1 [uridine]
- Decrease of t-PA site occupancy at 500 µM ([1]; 60-mm dishes, 37° C.): ~2%

Compound: ferric citrate
- Increase of t-PA site occupancy ([1]; 10-100 μM ferric citrate, 60-mm dishes, 37° C., days 4-6 (FIG. 11)): up to 4%

Compound: t-PA: human tissue-type plasminogen activator, recombinant, produced in CHO cells; mixture of Type I and Type II glycoforms
- Kd of binding to fibrin (fibrin): in the μM range
